Laboratory results from ChEMBL document CHEMBL1201862, “PubChem BioAssay data set” (2004).
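Compound exposure: 48 hours, 5 concentrations, 96-well plates. Here, GI50 denotes the concentration required for 50% inhibition of growth.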 Active and inactive are the calls of the source. No stated cut-off is given here; in the data, active = GI50 up to about 1.1 µM and inactive = higher. Where a SMILES comes first, the peptide text is derived from it. [ ]: non-standard residue; d: D form. The star is where a group is joined. Cbz = O=C(OCc1ccccc1)*; Aib = CC(C)(N)C(=O)O; OBn = c1ccc(CO*)cc1

Tests used:
Assay in all cases: NCI-60 cell line screen, 48 h
SNB-19 = system: SNB-19
A549 = system: A549
ACHN = system: ACHN
SK-MEL-28 = system: SK-MEL-28
DU-145 = system: DU-145
HCC 2998 = system: HCC 2998
Hs-578T = system: Hs-578T
HCT-116 = system: HCT-116
EKVX = system: EKVX
MDA-MB-231 = system: MDA-MB-231
NCI-H522 = system: NCI-H522
SF-268 = system: SF-268
HOP-62 = system: HOP-62
U-251 = system: U-251
Malme-3M = system: Malme-3M
LOX IMVI = system: LOX IMVI
K562 = system: K562
UACC-257 = system: UACC-257
RXF 393 = system: RXF 393
PC-3 = system: PC-3

Structure (SMILES)	GI50 (SNB-19)	GI50 (A549)	GI50 (ACHN)	GI50 (SK-MEL-28)	GI50 (DU-145)	GI50 (HCC 2998)	GI50 (Hs-578T)	GI50 (HCT-116)	GI50 (EKVX)	GI50 (MDA-MB-231)	GI50 (NCI-H522)	GI50 (SF-268)	GI50 (HOP-62)	GI50 (U-251)	GI50 (Malme-3M)	GI50 (LOX IMVI)	GI50 (K562)	GI50 (UACC-257)	GI50 (RXF 393)	GI50 (PC-3)
N=C(N)NS(=O)(=O)c1ccc(NC(=O)c2ccc3nc4ccccc4c(N)c3c2)cc1	> 100 µM (inactive)	> 100 µM (inactive)	> 100 µM (inactive)	> 100 µM (inactive)	> 100 µM (inactive)	> 100 µM (inactive)	> 100 µM (inactive)	> 100 µM (inactive)	> 100 µM (inactive)	> 100 µM (inactive)	> 100 µM (inactive)	> 100 µM (inactive)	> 100 µM (inactive)	> 100 µM (inactive)	> 100 µM (inactive)	> 100 µM (inactive)	> 100 µM (inactive)	> 100 µM (inactive)	> 100 µM (inactive)	> 100 µM (inactive)
CCOC(CBr)OC1C(=O)OCC1(C)C (stereo not given)	> 100 µM (inactive)	> 100 µM (inactive)	> 100 µM (inactive)	> 100 µM (inactive)	> 100 µM (inactive)	> 100 µM (inactive)	> 100 µM (inactive)	> 100 µM (inactive)	> 100 µM (inactive)	> 100 µM (inactive)	> 100 µM (inactive)	> 100 µM (inactive)	> 100 µM (inactive)	> 100 µM (inactive)	> 100 µM (inactive)	> 100 µM (inactive)	> 100 µM (inactive)	> 100 µM (inactive)	> 100 µM (inactive)	> 100 µM (inactive)
CCOC(=O)NC(Nc1c(F)c(F)c(F)c(F)c1F)(C(F)(F)F)C(F)(F)F	> 100 µM (inactive)	> 100 µM (inactive)	> 100 µM (inactive)	> 100 µM (inactive)	> 100 µM (inactive)	> 100 µM (inactive)	> 100 µM (inactive)	> 100 µM (inactive)	> 100 µM (inactive)	> 100 µM (inactive)	> 100 µM (inactive)	> 100 µM (inactive)	> 100 µM (inactive)	> 100 µM (inactive)	> 100 µM (inactive)	> 100 µM (inactive)	> 100 µM (inactive)	> 100 µM (inactive)	> 100 µM (inactive)	> 100 µM (inactive)
Cc1ccc2nc(-c3ccc(N)c(Br)c3)sc2c1	81.8 µM (inactive)	29 µM (inactive)	36.3 µM (inactive)	> 100 µM (inactive)	31.5 µM (inactive)	2.64 µM (inactive)	14.2 µM (inactive)	31.4 µM (inactive)	15.2 µM (inactive)	25.3 µM (inactive)	0.875 µM (active)	10.6 µM (inactive)	13.5 µM (inactive)	37.5 µM (inactive)	> 100 µM (inactive)	13.2 µM (inactive)	17.4 µM (inactive)	20 µM (inactive)	18.2 µM (inactive)	22.2 µM (inactive)
C/N=C/N(C)c1c2ccccc2nc2ccccc12	> 100 µM (inactive)	> 100 µM (inactive)	> 100 µM (inactive)	> 100 µM (inactive)	> 100 µM (inactive)	> 100 µM (inactive)	> 100 µM (inactive)	> 100 µM (inactive)	> 100 µM (inactive)	> 100 µM (inactive)	> 100 µM (inactive)	> 100 µM (inactive)	> 100 µM (inactive)	> 100 µM (inactive)	> 100 µM (inactive)	> 100 µM (inactive)	> 100 µM (inactive)	> 100 µM (inactive)	> 100 µM (inactive)	> 100 µM (inactive)
CC1=C2CC(C)(C)/C=C\C(=O)/C(C)=C\C3=C[C@H](C)C[C@]3(O2)C1=O	17.2 µM (inactive)	4.47 µM (inactive)	1.03 µM (active)	0.798 µM (active)	4.67 µM (inactive)	4.85 µM (inactive)	2.26 µM (inactive)	0.443 µM (active)	1.87 µM (inactive)	1.05 µM (active)	0.201 µM (active)	6.78 µM (inactive)	6.43 µM (inactive)	3.86 µM (inactive)	0.897 µM (active)	0.741 µM (active)	1.51 µM (inactive)	1.14 µM (inactive)	0.597 µM (active)	2.02 µM (inactive)
CC(NC(=O)C(C)(C)NC(=O)C(CC(=O)OCc1ccccc1)NC(=O)OCc1ccccc1)C(N)=O (stereo not given) (Cbz-Asp(OBn)-[Aib]-Ala-NH2; configuration not given here)	> 100 µM (inactive)	> 100 µM (inactive)	> 100 µM (inactive)	> 100 µM (inactive)	> 100 µM (inactive)	> 100 µM (inactive)	> 100 µM (inactive)	> 100 µM (inactive)	> 100 µM (inactive)	> 100 µM (inactive)	> 100 µM (inactive)	> 100 µM (inactive)	> 100 µM (inactive)	> 100 µM (inactive)	> 100 µM (inactive)	> 100 µM (inactive)	> 100 µM (inactive)	> 100 µM (inactive)	> 100 µM (inactive)	> 100 µM (inactive)
CC(C)(C)OC(=O)NC(Cc1ccc(OCc2ccccc2)cn1)C(=O)O (stereo not given)	> 100 µM (inactive)	> 100 µM (inactive)	> 100 µM (inactive)	> 100 µM (inactive)	> 100 µM (inactive)	> 100 µM (inactive)	> 100 µM (inactive)	> 100 µM (inactive)	> 100 µM (inactive)	> 100 µM (inactive)	67 µM (inactive)	> 100 µM (inactive)	> 100 µM (inactive)	> 100 µM (inactive)	> 100 µM (inactive)	> 100 µM (inactive)	> 100 µM (inactive)	> 100 µM (inactive)	> 100 µM (inactive)	> 100 µM (inactive)
CNc1nc2n(CCO)c(-c3ccccc3)c(-c3ccccc3)nc-2c(=O)n1	> 50 µM (inactive)	> 50 µM (inactive)	> 50 µM (inactive)	> 50 µM (inactive)	> 50 µM (inactive)	> 50 µM (inactive)	> 50 µM (inactive)	> 50 µM (inactive)	> 50 µM (inactive)	> 50 µM (inactive)	> 50 µM (inactive)	> 50 µM (inactive)	22.8 µM (inactive)	> 50 µM (inactive)	> 50 µM (inactive)	> 50 µM (inactive)	> 50 µM (inactive)	> 50 µM (inactive)	> 50 µM (inactive)	> 50 µM (inactive)
COC(=O)C#CC1(O)C=CC(=O)C=C1	4.63 µM (inactive)	9.46 µM (inactive)	0.571 µM (active)	0.579 µM (active)	1.38 µM (inactive)	2.54 µM (inactive)	2.79 µM (inactive)	0.256 µM (active)	4.12 µM (inactive)	2 µM (inactive)	0.175 µM (active)	0.664 µM (active)	4.72 µM (inactive)	0.841 µM (active)	2 µM (inactive)	0.275 µM (active)	0.392 µM (active)	1.15 µM (inactive)	1.58 µM (inactive)	1.29 µM (inactive)
O=C(O)CCc1ccc(-c2ccccc2)[nH]1	> 100 µM (inactive)	> 100 µM (inactive)	> 100 µM (inactive)	> 100 µM (inactive)	> 100 µM (inactive)	> 100 µM (inactive)	> 100 µM (inactive)	> 100 µM (inactive)	> 100 µM (inactive)	> 100 µM (inactive)	> 100 µM (inactive)	> 100 µM (inactive)	> 100 µM (inactive)	> 100 µM (inactive)	> 100 µM (inactive)	> 100 µM (inactive)	> 100 µM (inactive)	> 100 µM (inactive)	> 100 µM (inactive)	> 100 µM (inactive)
